Assay results reported in patent US11345694B2, “Antibacterial compounds” (DISCUVA LTD., priority 2017, dated 2022).
Converted amounts (≈) assume the structure as drawn.

Assays:
[1] = tested on: Pseudomonas aeruginosa ATCC 33359 (PA); assay: MIC broth microdilution; format: cell-based; conditions: ATCC33359
Outline: (§1)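 Following CLSI standards, susceptibility is measured in cation-adjusted Müller-Hinton broth at 37° C without added CO2 for 20-24 hours. Test concentrations run 0.39-200 μM final in doubling steps, DMSO capped at 2%. MIC: lowest concentration without bacterial growth.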

[2] = tested on: Klebsiella pneumoniae ATCC 51504 (KP4); assay: MIC broth microdilution; format: cell-based; conditions: ATCC51504
Outline: as §1

[3] = tested on: Acinetobacter baumannii ATCC 17978 (AB); assay: MIC broth microdilution; format: cell-based; conditions: ATCC17978
Outline: as §1

[4] = tested on: Klebsiella pneumoniae ATCC 10031 (KP2); assay: MIC broth microdilution; format: cell-based; conditions: ATCC10031
Outline: (§2)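 Planktonic MIC determination: compound tested two-fold from 200 down to 0.39 μM final with DMSO capped at 2% final, cation-adjusted Müller-Hinton broth, 37° C for 20-24 hours. Endpoint is the lowest concentration inhibiting growth.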

[5] = tested on: Staphylococcus aureus ATCC 35556 (SA); assay: MIC broth microdilution; format: cell-based; conditions: ATCC35556
Outline: as §1

[6] = tested on: Escherichia coli K12 (EC); assay: MIC broth microdilution; format: cell-based
Outline: as §1

[7] = tested on: E. coli NCTC 13441 (UPEC); assay: MIC broth microdilution; format: cell-based, Escherichia coli; conditions: Escherichia coli, NCTC13441
Outline: as §1

[8] = tested on: K. pneumoniae H154020667 (KP6); assay: MIC broth microdilution; format: cell-based, Klebsiella pneumoniae; conditions: Klebsiella pneumoniae
Outline: as §2

[9] = tested on: K. pneumoniae H151440671 (KP10); assay: MIC broth microdilution; format: cell-based, Klebsiella pneumoniae; conditions: Klebsiella pneumoniae
Outline: as §2

[10] = tested on: K. pneumoniae H154680676 (KP5); assay: MIC broth microdilution; format: cell-based, Klebsiella pneumoniae; conditions: Klebsiella pneumoniae
Outline: as §2

[11] = tested on: K. pneumoniae H154300688 (KP9); assay: MIC broth microdilution; format: cell-based, Klebsiella pneumoniae; conditions: Klebsiella pneumoniae
Outline: as §2

[12] = tested on: K. pneumoniae ATCC 700603 (KP3); assay: MIC broth microdilution; format: cell-based, Klebsiella pneumoniae; conditions: Klebsiella pneumoniae, ATCC700603
Outline: as §2

[13] = tested on: K. pneumoniae H154640784 (KP7); assay: MIC broth microdilution; format: cell-based, Klebsiella pneumoniae; conditions: Klebsiella pneumoniae
Outline: as §2

[14] = tested on: K. pneumoniae H154600588 (KP8); assay: MIC broth microdilution; format: cell-based, Klebsiella pneumoniae; conditions: Klebsiella pneumoniae
Outline: as §2

[15] = tested on: K. pneumoniae NCTC 13438 (KP1); assay: MIC broth microdilution; format: cell-based, Klebsiella pneumoniae; conditions: Klebsiella pneumoniae, NCTC13438
Outline: as §2

[16] = tested on: human hepatocarcinoma cell line ATCC HB-8065 (HepG2); assay: Human cell viability (CellTiter-Glo); format: cell-based; conditions: Homo sapiens; HepG2 cells, 24 h incubation, CellTiter-Glo luminescence, 0.2-100 μM; read-out: IC50 values against the HepG2 cell line
Outline: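 Cytotoxicity was read as CellTiter-Glo luminescence after 24 h compound exposure at 37° C., 5% CO2. Final concentrations spanned 0.2-100 μM in two-fold steps, in 1% FBS MEM with 1% DMSO, on cells plated a day earlier at 20,000/well. IC50 came from 4-parameter logistic regression.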

MIC [1] [µM] | MIC [2] [µM] | MIC [3] [µM] | MIC [4] [µM] | MIC [5] [µM] | MIC [6] [µM] | MIC [7] [µM] | MIC [8] [µM] | MIC [9] [µM] | MIC [10] [µM] | MIC [11] [µM] | MIC [12] [µM] | MIC [13] [µM] | MIC [14] [µM] | MIC [15] [µM] | IC50 [16] [µM] | SMILES
> 100 | 1 to 10 (≈ 0.385 to 3.85 µg/mL) | > 100 | ≤ 1 | > 100 | 1 to 10 (≈ 0.385 to 3.85 µg/mL) | 1 to 10 (≈ 0.385 to 3.85 µg/mL) | 1 to 10 (≈ 0.385 to 3.85 µg/mL) | 1 to 10 (≈ 0.385 to 3.85 µg/mL) | 1 to 10 (≈ 0.385 to 3.85 µg/mL) | 1 to 10 (≈ 0.385 to 3.85 µg/mL) | 1 to 10 (≈ 0.385 to 3.85 µg/mL) | 1 to 10 (≈ 0.385 to 3.85 µg/mL) | 1 to 10 (≈ 0.385 to 3.85 µg/mL) | 10 to 100 (≈ 3.85 to 38.5 µg/mL) | > 100 | Cc1cc(-c2[nH]c(N)nc2-c2ccc3c(c2)N(S(C)(=O)=O)CCO3)ccn1 [Example 55, 5-(2-Methylpyridin-4-yl)-4-(4-(methylsulfonyl)-3,4-dihydro-2H-benzo[b][1,4]oxazin-6-yl)-1H-imidazol-2-amine]
> 100 | 1 to 10 (≈ 0.364 to 3.64 µg/mL) | > 100 | ≤ 1 | > 100 | 1 to 10 (≈ 0.364 to 3.64 µg/mL) | ≤ 1 | 1 to 10 (≈ 0.364 to 3.64 µg/mL) | 1 to 10 (≈ 0.364 to 3.64 µg/mL) | 1 to 10 (≈ 0.364 to 3.64 µg/mL) | 1 to 10 (≈ 0.364 to 3.64 µg/mL) | 1 to 10 (≈ 0.364 to 3.64 µg/mL) | 1 to 10 (≈ 0.364 to 3.64 µg/mL) | 10 to 100 (≈ 3.64 to 36.4 µg/mL) | 1 to 10 (≈ 0.364 to 3.64 µg/mL) | > 100 | Cc1cc(-c2[nH]c(N)nc2-c2ccc3c(c2)N(C(=O)CN)CCO3)ccn1 [Example 62, 2-Amino-1-(6-(2-amino-5-(2-methylpyridin-4-yl)-1H-imidazol-4-yl)-2,3-dihydro-4H-benzo[b][1,4]oxazin-4-yl)ethan-1-one]

Further lines, the molecule ahead of its results:

SMILES | MIC [1] [µM] | MIC [2] [µM] | MIC [3] [µM] | MIC [4] [µM] | MIC [5] [µM] | MIC [6] [µM] | MIC [7] [µM] | MIC [8] [µM] | MIC [9] [µM] | MIC [10] [µM] | MIC [11] [µM] | MIC [12] [µM] | MIC [13] [µM] | MIC [14] [µM] | MIC [15] [µM] | IC50 [16] [µM]
Cc1cc(-c2[nH]c(N)nc2-c2ccc3c(c2)N(C2CC2)CCO3)ccn1 [Example 65, 4-(4-Cyclopropyl-3,4-dihydro-2H-benzo[b][1,4]oxazin-6-yl)-5-(2-methylpyridin-4-yl)-1H-imidazol-2-amine] | > 100 | ≤ 1 | > 100 | ≤ 1 | > 100 | ≤ 1 | 1 to 10 (≈ 0.347 to 3.47 µg/mL) | ≤ 1 | ≤ 1 | ≤ 1 | ≤ 1 | 1 to 10 (≈ 0.347 to 3.47 µg/mL) | 1 to 10 (≈ 0.347 to 3.47 µg/mL) | 1 to 10 (≈ 0.347 to 3.47 µg/mL) | 1 to 10 (≈ 0.347 to 3.47 µg/mL) | > 100
Cc1cc(-c2[nH]c(N)nc2-c2ccc3c(c2)NCCC3)ccn1 [Example 58, 5-(2-Methylpyridin-4-yl)-4-(1,2,3,4-tetrahydroquinolin-7-yl)-1H-imidazol-2-amine] | > 100 | 1 to 10 (≈ 0.305 to 3.05 µg/mL) | > 100 | ≤ 1 | > 100 | 1 to 10 (≈ 0.305 to 3.05 µg/mL) | ≤ 1 | 1 to 10 (≈ 0.305 to 3.05 µg/mL) | 1 to 10 (≈ 0.305 to 3.05 µg/mL) | 1 to 10 (≈ 0.305 to 3.05 µg/mL) | 1 to 10 (≈ 0.305 to 3.05 µg/mL) | 10 to 100 (≈ 3.05 to 30.5 µg/mL) | 10 to 100 (≈ 3.05 to 30.5 µg/mL) | 10 to 100 (≈ 3.05 to 30.5 µg/mL) | 10 to 100 (≈ 3.05 to 30.5 µg/mL) | > 100
COCCN1CCOc2ccc(-c3nc(N)[nH]c3-c3ccnc(C)c3)cc21 [Example 64, 4-(4-(2-Methoxyethyl)-3,4-dihydro-2H-benzo[b][1,4]oxazin-6-yl)-5-(2-methylpyridin-4-yl)-1H-imidazol-2-amine] | > 100 | 1 to 10 (≈ 0.365 to 3.65 µg/mL) | > 100 | ≤ 1 | > 100 | 1 to 10 (≈ 0.365 to 3.65 µg/mL) | ≤ 1 | 1 to 10 (≈ 0.365 to 3.65 µg/mL) | 1 to 10 (≈ 0.365 to 3.65 µg/mL) | 1 to 10 (≈ 0.365 to 3.65 µg/mL) | 1 to 10 (≈ 0.365 to 3.65 µg/mL) | 1 to 10 (≈ 0.365 to 3.65 µg/mL) | 1 to 10 (≈ 0.365 to 3.65 µg/mL) | 1 to 10 (≈ 0.365 to 3.65 µg/mL) | 1 to 10 (≈ 0.365 to 3.65 µg/mL) | > 100
